Experimental data reported in patent US12171813B2, “Methods of and compositions for reducing gene expression and/or activity” (Christiana Care Gene Editing Institute, Inc., priority 2021, dated 2024).

What follows are substances tested on NFE2L2 gene (assay: Screening of SureKill guide RNAs in the NFE2L2 gene for ability to induce indels). Settings: transfections of individual guide RNAs (spCas9 RNP); NCI-H1703 clone 44-25 cells; DECODR.
Type: cell-based, Human
Method: (§1) Human lung squamous cell carcinoma NCI-H1703 clone 44-25 cells were derived from NCI-H1703 cells (#CRL-5889) which were purchased from ATCC (Manassas, VA, USA). NCI-H1703 clone 44-25 cells contains R34G mutation (C 4 G) in NFE2L2 gene. H1703 clone 44-25 cells were cultured in ATCC formulation RPMI-1640 with 10% FBS. T75 flasks were used and cells were split 1:5 upon reaching 90% confluency. Human lung adenocarcinoma cells (Dist. Lot. No. LG0703-F948-PDC) were acquired from the National Institute of Health's National Cancer Institute's Patient-Derived Models Repository (PDMR). This PDMR cell line contains the L858R mutation (T 4 G) in the EGFR gene. The PDMR cells were maintained in Advanced DMEM/F12 media containing 10% FBS, 0.4 μg/mL hydrocortisone, 0.01 μg/mL EGF Recombinant Human Protein, 24 μg/mL adenine, and 2 mM L-Glutamine. T75s were used and cells were split 1:3 upon reaching 90% confluency. All cultures were maintained in cell culture incubators at 37° C. and 5% CO2.
(§2) Ribonucleoproteins (RNP) are complexed by incubating 250 pmol of purified synthetic gRNA (Synthego Corporation, Redwood City, CA) with 50 pmol of purified spCas9 (Synthego Corporation, Redwood City, CA) at room temperature in nuclease-free 1× TE buffer for 15 minutes.
(§3) Transfections were carried out using the Lonza Nuclefector 4d. Cultures in t75s at 90% confluence were split 1:2 24 hours prior to transfection. RNPs were complexed at 250:50 pmol for 30 minutes prior to transfection, during which time cells were harvested and counted. All reactions were 100 μL and contained 1 e6 cells. Lonza SF solution and Nucleofector program CM-130 were used in all transfections of the H1703 cell line. Lonza SE solution and Nucleofector program CA-137 were used in all transfections of the PDMR. After transfection, 500 μL of media that had been equilibrated to cell culture CO2 and temperature conditions was added to each 100 μL cuvettes. Cuvettes were then placed in the incubator. After 20 minutes, the entire content of each cuvette was seeded into 3 mL of media in a 6 well plate. After 72 hours, samples were dissociated using 200 μL Trypsin 0.25% for 5 minutes. 800 μL culture media was used to quench and split into 1.5 mL tubes each containing 500 μL of the sample. Tubes were spun at 300×g for 5 minutes. One of the tubes was placed in the −20° C. freezer and the other was resuspended in 500 μL of Trizol for RNA extraction and cDNA synthesis.
(§4) All sequencing was performed on the Applied Biosystems SeqStudio. The BigDye Terminator v3.1 Cycle Sequencing Kit was used to prepare samples for sequencing. Resulting sequences were analyzed with DECODR to determine indel rates (Bloh et al., CRISPR J. 4:120-31 (2021)).
In some cancers, human NRF2 contains a mutation, R34G, that creates a novel PAM site making it a targetable sequence by CRISPR. By combining the R34G-targeting CRISPR with another CRISPR of high efficiency in a downstream intronic region, exon skipping can be induced, resulting in a higher efficiency of functional knockout than the R34G targeting CRISPR alone. To find a suitable SureKill guide RNA (gRNA) to pair with the R34G targeting CRISPR, we selected the intron between exons 3 and 4 (FIG. 2). A series of gRNAs were created in this region and screened for their ability to induce indels, a measure of their activity (Table 2).
In Table 2, all sequences are listed from 5′ to 3′. Indel %, a measure of CRISPR activity, is based on transfections of individual guide RNAs. All guide RNAs, with the exception of R34G, were designed in the intron between exons 3 and 4.

Substance	indel %
NRF2 3-4 SureKill gRNA 10: NRF2 intron 3-4 guide RNA GGTTTTGTATTGTGTGAA, SEQ ID NO:15 (listed as DNA, chemistry not given here)	32.2%
NRF2 3-4 SureKill gRNA 26: NRF2 intron 3-4 guide RNA GCTTACTCATCCCCTGTTGG, SEQ ID NO:28 (listed as DNA, chemistry not given here)	89.65%
NRF2 3-4 SureKill gRNA 29a: NRF2 intron 3-4 guide RNA GATTCCATTTTGTTTTGTAG, SEQ ID NO:30 (listed as DNA, chemistry not given here)	11.85%
NRF2 3-4 SureKill gRNA 29b: NRF2 intron 3-4 guide RNA GATTTATGAGTCTTCCACCAAC, SEQ ID NO:31 (listed as DNA, chemistry not given here)	11.8%
NRF2 3-4 SureKill gRNA 31: NRF2 intron 3-4 guide RNA GTTTGGTGAGTAAAGAGCCAGC, SEQ ID NO:33 (listed as DNA, chemistry not given here)	14.55%
NRF2 3-4 SureKill gRNA 32: NRF2 intron 3-4 guide RNA GGTTATGCTGTCCATGTTTC, SEQ ID NO:34 (listed as DNA, chemistry not given here)	47.8%

The substances below were run on NRF2 (assay: cDNA PCR analysis of exon skipping / full-size transcript in NFE2L2). Settings: gRNA individually applied in the CRISPR reaction; NCI-H1703 clone 44-25 cells.
Type: cell-based, Human
Method: After CRISPR reactions, total RNA was prepared, and cDNA synthesized for PCR amplification of the target region from NRF2. PCR-amplified DNA was then analyzed by electrophoresis through a 1% agarose gel for 75 minutes at 80v. DNA was stained with SYBR Safe. Lanes 1 and 10: NEB 2 Log Ladder; Lane 2: Scrambled gRNA; Lane 3: NRF2 3-4 SureKill gRNA 3 alone; Lane 4: NRF2 3-4 SureKill gRNA 12 alone; Lane 5: NRF2 3-4 SureKill gRNA 14 alone; Lane 6: NRF2 3-4 SureKill gRNA 15 alone; Lane 7: NRF2 3-4 SureKill gRNA 21 alone; Lane 8: NRF2 3-4 SureKill gRNA 25 alone; Lane 9: NRF2 3-4 SureKill gRNA 26 alone. On the left side of the image are markers indicating DNA size in bp.
After CRISPR reactions, total RNA was prepared, and cDNA synthesized for PCR amplification of the target region from NRF2. PCR-amplified DNA was then analyzed by electrophoresis through a 1% agarose gel for 75 minutes at 80v. DNA was stained with SYBR Safe. Lane 1: NEB 2 Log Ladder; Lane 2: Scrambled gRNA; Lane 3: R34G gRNA alone; Lane 4: NRF2 3-4 SureKill gRNA 3+R34G gRNA; Lane 5: NRF2 3-4 SureKill gRNA+R34G gRNA; Lane 6: NRF2 3-4 SureKill gRNA 14+R34G gRNA. […]
Transfections were carried out using the Lonza Nuclefector 4d. […] RNPs were complexed at 250:50 pmol for 30 minutes prior to transfection, during which time cells were harvested and counted. […]

Substance	exon skipping (cDNA analysis)
NRF2 3-4 SureKill gRNA 26: NRF2 intron 3-4 guide RNA GCTTACTCATCCCCTGTTGG, SEQ ID NO:28 (listed as DNA, chemistry not given here)	some level of exon skipping

The substances below were run on EGFR gene (assay: Screening of SureKill guide RNAs in the EGFR gene for ability to induce indels). Settings: transfections of individual guide RNAs (spCas9 RNP); PDMR human lung adenocarcinoma cells with EGFR L858R; DECODR.
Type: cell-based
Method: as §1, §2, §3, §4
Human EGFR is a frequently mutated gene that is associated with cancers. One of the most common mutations is L858R which results in the creation of a novel PAM site, making it a targetable sequence by CRISPR. Like the R34G mutation, the CRISPR designed to target the L858R mutation is not highly efficient on its own. By combining the L858R-targeting CRISPR with another CRISPR of high efficiency in a downstream intronic region, exon skipping can be induced, resulting in a higher efficiency of functional knockout than the L858R targeting CRISPR alone. To find a suitable gRNA to pair with the L858R targeting CRISPR, we selected the intron between exons 21 and 22 (FIG. 6). A series of gRNAs were created in this region and screened for their ability to induce indels, a measure of their activity using DECODR (Bloh et al., CRISPR J. 4:120-31 (2021)) (Table 3).
In Table 3, all sequences are listed from 5′ to 3′. Indel percent, a measure of CRISPR activity, is based on transfections of individual guide RNAs. All guide RNAs, with the exception of L858R, were designed in the intron between exons 21 and 22.

Substance	indel %
EGFR 21-22 SureKill gRNA 2: EGFR intron 21-22 guide RNA GTATTGTTTAACACATGCAG, SEQ ID NO:10 (listed as DNA, chemistry not given here)	2%
EGFR 21-22 SureKill gRNA 10A: EGFR intron 21-22 guide RNA GTTTAACACATGCAGGGG, SEQ ID NO:35 (listed as DNA, chemistry not given here)	0%
EGFR 21-22 SureKill gRNA 10B: EGFR intron 21-22 guide RNA GTATTGTTTAACACATGCAGGGG, SEQ ID NO:36 (listed as DNA, chemistry not given here)	0%
EGFR 21-22 SureKill gRNA 23: EGFR intron 21-22 guide RNA GCATTTTCCTGACACCAGGGACC, SEQ ID NO:47 (listed as DNA, chemistry not given here)	96.15%
EGFR 21-22 SureKill gRNA 29: EGFR intron 21-22 guide RNA GTTAAACAATACAGCTAGT, SEQ ID NO:52 (listed as DNA, chemistry not given here)	100%
